The values below come from PMC10541502 (Science Advances, 2023).

The test system of the data set is C57BL/6 mice. The conditions noted are these: mouse.

Ends that are not written are not given here.

With MSPSILKHWSRQGGGKKLLGLLLKLKLK [F6P6], the “In vivo toxicity, overall finding” value is reported as “did not induce primary toxic irritation”.
With MSPSILKHWSRQGGGKLKKLLLGLLLKK [F6P1], the “In vivo toxicity, overall finding” value is reported as “did not induce primary toxic irritation”.
